Assays:
[1] = Drug interaction studies: co-administered drug pharmacokinetics in the presence of elagolix; conditions: for Effect of co-administration of ELAGOLIX on concentration of concomitant drug (direction of the change in AUC): established drug interactions
Method: (§1) Drug interaction studies were performed with ELAGOLIX and other drugs that are likely to be co-administered and with drugs commonly used as probes for pharmacokinetic interactions.

[2] = for Drugs with no observed clinically significant interactions with ELAGOLIX: co-administration with ELAGOLIX
Method: as §1

[3] = Ethinyl estradiol 35 mcg and triphasic norgestimate 0.18/0.215/0.25 mg once daily, elagolix 150 ms once daily, N 21

C#C[C@]1(O)CC[C@H]2[C@@H]3CCC4=CC(=NO)CC[C@@H]4[C@H]3CC[C@@]21CC (mixture of isomers) [Norelgestromin]
Ratio of co-administered drug AUC, with elagolix vs medication alone [1, 3]: 0.85 | Ratio of co-administered drug Cmax, with elagolix vs medication alone [1, 3]: 0.87

C#CC1(O)CC[C@H]2[C@@H]3CCC4=CC(=O)CC[C@@H]4[C@H]3CC[C@@]21CC (mixture of isomers) [Norgestrel]
Ratio of co-administered drug AUC, with elagolix vs medication alone [1, 3]: 0.92 | Ratio of co-administered drug Cmax, with elagolix vs medication alone [1, 3]: 0.89

C[C@H]1O[C@@H](O[C@H]2[C@@H](O)C[C@H](O[C@H]3[C@@H](O)C[C@H](O[C@H]4CC[C@@]5(C)[C@H](CC[C@@H]6[C@@H]5C[C@@H](O)[C@]5(C)[C@@H](C7=CC(=O)OC7)CC[C@]65O)C4)O[C@@H]3C)O[C@@H]2C)C[C@H](O)[C@@H]1O [Digoxin]
Ratio of co-administered drug AUC, with elagolix vs medication alone ([1]; Digoxin 0.5 mg single dose, elagolix 200 ms twice daily × 10 days, N 11, 90% CI 1.17-1.35): 1.26 | Ratio of co-administered drug Cmax, with elagolix vs medication alone ([1]; Digoxin 0.5 mg single dose, elagolix 200 ms twice daily × 10 days, N 11, 90% CI 1.53-1.91): 1.71 | Effect of co-administration of ELAGOLIX on concentration of concomitant drug (direction of the change in AUC) [1]: ↑ digoxin

C#C[C@]1(O)CC[C@H]2[C@@H]3CCc4cc(O)ccc4[C@H]3CC[C@@]21C [Ethinyl Estradiol]
Ratio of co-administered drug AUC, with elagolix vs medication alone [1, 3]: 1.30 | Ratio of co-administered drug Cmax, with elagolix vs medication alone [1, 3]: 1.15

CC(=O)N1CCN(c2ccc(OCC3COC(Cn4ccnc4)(c4ccc(Cl)cc4Cl)O3)cc2)CC1 (centres unmarked) [Ketoconazole]
Drugs with no observed clinically significant interactions with ELAGOLIX [2]: No dose adjustment is required

Cc1ncc2n1-c1ccc(Cl)cc1C(c1ccccc1F)=NC2 [Midazolam]
Ratio of co-administered drug AUC, with elagolix vs medication alone ([1]; Midazolam 2 mg single dose, elagolix 300 mg twice daily × 11 days, N 20, 90% CI 0.41-0.50): 0.46 | Ratio of co-administered drug Cmax, with elagolix vs medication alone ([1]; Midazolam 2 mg single dose, elagolix 300 mg twice daily × 11 days, N 20, 90% CI 0.51-0 62): 0.56 | Ratio of co-administered drug AUC, with elagolix vs medication alone ([1]; Midazolam 2 mg single dose, elagolix 150 ms once daily × 13 days, N 11, 90% CI 0.58-0.72): 0.65 | Ratio of co-administered drug Cmax, with elagolix vs medication alone ([1]; Midazolam 2 mg single dose, elagolix 150 ms once daily × 13 days, N 11, 90% CI 0.74-0.89): 0.81 | Effect of co-administration of ELAGOLIX on concentration of concomitant drug (direction of the change in AUC) [1]: ↓ midazolam

CO[C@H]1/C=C/O[C@@]2(C)Oc3c(C)c(O)c4c(O)c(c(/C=N/N5CCN(C)CC5)c(O)c4c3C2=O)NC(=O)/C(C)=C\C=C\[C@H](C)[C@H](O)[C@@H](C)[C@@H](O)[C@@H](C)[C@H](OC(C)=O)[C@@H]1C [Rifampin]
Effect of concomitant drug on elagolix (direction of the change in AUC) ([2]; established drug interactions): ↑ elagolix

CC(C)c1nc(N(C)S(C)(=O)=O)nc(-c2ccc(F)cc2)c1/C=C/[C@@H](O)C[C@@H](O)CC(=O)O [Rosuvastatin]
Ratio of co-administered drug AUC, with elagolix vs medication alone ([1]; Rosuvastatin 20 mg once daily, elagolix 300 mg twice daily × 7 days, N 10, 90% CI 0.50-0.71): 0.60 | Ratio of co-administered drug Cmax, with elagolix vs medication alone ([1]; Rosuvastatin 20 mg once daily, elagolix 300 mg twice daily × 7 days, N 10, 90% CI 0.73-1.35): 0.99 | Effect of co-administration of ELAGOLIX on concentration of concomitant drug (direction of the change in AUC) [1]: ↓ rosuvastatin

CN[C@H]1CC[C@@H](c2ccc(Cl)c(Cl)c2)c2ccccc21 [sertraline]
Drugs with no observed clinically significant interactions with ELAGOLIX [2]: No dose adjustment is required
